US9328057B2, “Chiral arylketones in the treatment of neutrophil-dependent inflammatory diseases” (DOMPE' FARMACEUTICI S.P.A., priority 2002, dated 2016)

System: chemiotaxis of human PMN leucocytes (PMNs) stimulated by interleukin 8
Test: chemiotaxis of human PMNs stimulated by IL-8 (48-well microchamber)
Assay type: cell-based
Conditions: Leucocyte, 10 min, IL-8 10 ng/mL, 10 minutes incubation at 37° C., read-out: IC50 (dose inhibiting 50% of the effect), chemiotaxis induced by IL-8 (converted)
Protocol: For evaluation of the compounds of the invention, polymorphonucleated blood cells were used obtained from heparinized blood of healthy adult volunteers by means of sedimentation on dextran. The mononucleated cells were removed by means of Ficoll/Hypaque, whilst the red blood cells were eliminated by treatment with hypotonic solutions. The cell vitality of the polymorphonucleated leucocytes (PMNs) was calculated by means of exclusion with Turk and Trypan Blue whilst after staining with Diff Quinck the percentage of the PM-nucleates on the cytocentrifugate was estimated (for details of the experimental techniques used see W. J. Ming et al., J. Immunol., 138, 1469, 1987). In each of the in vitro experiments, time periods of 10 minutes were used for the incubation of the PMNs with the compounds of the invention, operating at a temperature of 37° C.
In the experiments of chemiotaxis and in those designed for measuring the cytosol levels of the Ca^2+ ion, human recombinant IL-8 (Pepro Tech.) was used as stimulant: the liophilized protein was dissolved in HBSS (Hank's balanced salts solution) at a concentration of 100 ng/mL and was used after dilution in HBSS down to concentrations of 10 ng/mL in the chemiotaxis experiments and at the concentration of 25-50 ng/mL in the evaluation of the modifications of [Ca^2+]. […]

IC50: 0.5 nM
Compound: CC(=O)[C@H](C)c1ccc(CC(C)C)cc1 [R(−)-3-[(4′-isobutyl)phenyl]butan-2-one, (R)(−)-3-[(4′-isobutyl)phenyl]butan-2-one]
